Here are results for 30 compounds from patent US9493446B2, “Orexin receptor antagonists which are [ortho bi-(hetero-)aryl]-[2-(meta bi-(hetero-)aryl)-pyrrolidin-1-yl]-methanone derivatives” (Actelion Pharmaceuticals Ltd, priority 2012, dated 2016).

Read-outs that look alike come from different tables or passages of the source. Bounds are passed on as bounds.

Assay [1] concerns the target orexin-1 (Homo sapiens (Human), UniProt O43613). The experiment in a line: Intracellular calcium measurement (FLIPR), CHO cells expressing human orexin-1 receptor, 3 nM orexin-A. The settings on record: read-out: IC50 OX1. The format is cell-based. In outline:
(§1)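 CHO cells stably expressing each receptor were loaded with 3 μM fluo-4 AM plus 5 mM probenecid for 50 min at 37 °C, then equilibrated 30 min at rt.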

Assay [2] concerns the target human orexin-2 receptor (Homo sapiens (Human), UniProt O43614). The experiment in a line: Intracellular calcium measurement (FLIPR), CHO cells expressing human orexin-2 receptor, 3 nM orexin-A. The assay is classed as cell-based. The settings on record: CHO cells expressing human orexin-2 receptor, FLIPR, 3 nM orexin-A; geometric mean if determined several times; read-out: IC50 OX2. In a few lines: as §1

Setting [3] is: CHO cells expressing human orexin-1 receptor, FLIPR, 3 nM orexin-A, geometric mean if determined several times.

orexin-1, sequence (O43613 whole entry): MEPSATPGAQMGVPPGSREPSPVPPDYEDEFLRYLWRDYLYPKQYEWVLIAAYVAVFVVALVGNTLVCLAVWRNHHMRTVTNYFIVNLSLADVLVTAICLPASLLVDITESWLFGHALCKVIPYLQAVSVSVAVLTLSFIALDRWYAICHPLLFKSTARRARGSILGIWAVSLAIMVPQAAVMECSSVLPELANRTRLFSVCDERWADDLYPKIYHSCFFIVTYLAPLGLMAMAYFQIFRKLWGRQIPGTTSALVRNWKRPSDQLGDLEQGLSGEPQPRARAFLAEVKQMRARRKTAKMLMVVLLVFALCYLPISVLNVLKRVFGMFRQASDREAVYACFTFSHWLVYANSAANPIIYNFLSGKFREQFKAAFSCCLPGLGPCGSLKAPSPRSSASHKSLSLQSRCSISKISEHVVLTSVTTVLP
human orexin-2 receptor, sequence (O43614 whole entry): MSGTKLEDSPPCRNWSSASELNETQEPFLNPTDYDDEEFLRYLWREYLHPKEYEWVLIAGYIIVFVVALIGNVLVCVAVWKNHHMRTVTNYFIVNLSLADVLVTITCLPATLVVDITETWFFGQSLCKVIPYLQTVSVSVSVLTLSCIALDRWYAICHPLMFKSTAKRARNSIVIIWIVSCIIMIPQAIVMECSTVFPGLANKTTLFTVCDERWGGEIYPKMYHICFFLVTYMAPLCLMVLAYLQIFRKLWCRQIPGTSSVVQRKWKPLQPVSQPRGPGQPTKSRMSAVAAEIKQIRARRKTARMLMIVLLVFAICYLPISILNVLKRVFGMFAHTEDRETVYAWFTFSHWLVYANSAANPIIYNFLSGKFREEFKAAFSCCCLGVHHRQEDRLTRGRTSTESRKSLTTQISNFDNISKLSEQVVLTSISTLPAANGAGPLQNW

Take `COc1c(F)cccc1-c1nnc([C@@H]2CCCN2C(=O)c2ccc(Cl)cc2-n2nccn2)[nH]1` [compound 476]: the results for the IC50 in assay [1] (setting [3]) and in assay [2] were 0.027 µM and 0.003 µM, respectively.

`Cc1ccc(-n2nccn2)c(C(=O)N2CCC[C@H]2c2nnc(-c3ccccc3OC(F)(F)F)[nH]2)c1` [compound 465, (5-Methyl-2-[1,2,3]triazol-2-yl-phenyl)-{(S)-2-[5-(2-trifluoromethoxy-phenyl)-4H-[1,2,4]triazol-3-yl]-pyrrolidin-1-yl}-methanone]: the values for the IC50 in assay [1] (setting [3]) and in assay [2] were 0.076 µM and 0.01 µM, respectively.

As to `COc1cc(C(=O)N2CCC[C@H]2c2noc(-c3cccc(OC)c3C)n2)c(-n2nccn2)cc1C` [compound 358, {(S)-2-[5-(3-Methoxy-2-methyl-phenyl)-[1,2,4]oxadiazol-3-yl]-pyrrolidin-1-yl}-(5-methoxy-4-methyl-2-[1,2,3]triazol-2-yl-phenyl)-methanone], the IC50 in assay [1] (setting [3]) came to 0.128 µM; in assay [2], 0.01 µM.

For `Cc1ccc(-n2nccn2)c(C(=O)N2CCC[C@H]2c2nc(-c3cccnc3C)no2)c1` [compound 78, {(S)-2-[3-(2-Methyl-pyridin-3-yl)-[1,2,4]oxadiazol-5-yl]-pyrrolidin-1-yl}-(5-methyl-2-[1,2,3]triazol-2-yl-phenyl)-methanone], the results for the IC50 in assay [1] (setting [3]) and in assay [2] were 2.29 µM and 0.029 µM, respectively.

With `Cc1c(Cl)cccc1-c1noc([C@@H]2CCCN2C(=O)c2ncsc2-c2cccc(Cl)c2)n1` [compound 94], the IC50 in assay [1] (setting [3]) was 0.237 µM; in assay [2], 0.201 µM.

In the case of `COc1cccc(-c2nccnc2C(=O)N2CCC[C@H]2c2nc(-c3cccc(Cl)c3C)no2)c1` [compound 128], the IC50 was found to be 0.2 µM in assay [1] and 0.181 µM in assay [2].

For the compound `CCOc1ccccc1-c1noc([C@@H]2CCCN2C(=O)c2cccc(F)c2-c2ccn[nH]2)n1` [compound 254, {(S)-2-[3-(2-Ethoxy-phenyl)-[1,2,4]oxadiazol-5-yl]-pyrrolidin-1-yl}-[3-fluoro-2-(2H-pyrazol-3-yl)-phenyl]-methanone], the IC50 in assay [1] (setting [3]) amounted to 0.069 µM; in assay [2], 0.02 µM.

As to `COc1cc(C(=O)N2CCC[C@H]2c2noc(-c3cccc(F)c3OC)n2)c(-n2nccn2)cc1Cl` [compound 368], the IC50 in assay [1] (setting [3]) turned out to be 0.011 µM; in assay [2], 0.001 µM.

With `CCOc1ncccc1-c1nc([C@@H]2CCCN2C(=O)c2cc(OC)c(F)cc2-n2nccn2)no1` [compound 332, {(S)-2-[5-(2-Ethoxy-pyridin-3-yl)-[1,2,4]oxadiazol-3-yl]-pyrrolidin-1-yl}-(4-fluoro-5-methoxy-2-[1,2,3]triazol-2-yl-phenyl)-methanone], the IC50 in assay [1] (setting [3]) is 0.099 µM; in assay [2], 0.004 µM.

Consider `Cc1ccc(C(=O)N2CCC[C@@]2(C)c2nnc(-c3ccccc3OC(F)(F)F)[nH]2)c(-c2ccccc2)c1` [compound 548, (5-Methyl-biphenyl-2-yl)-{(S)-2-methyl-2-[5-(2-trifluoromethoxy-phenyl)-4H-[1,2,4]triazol-3-yl]-pyrrolidin-1-yl}-methanone], for which the IC50 in assay [1] (setting [3]) was 0.035 µM; in assay [2], 0.065 µM.

For the compound `Cc1cccc(C(=O)N2CCC[C@H]2c2nc(-c3cccc(F)c3C)no2)c1-n1nccn1` [compound 251, {(S)-2-[3-(3-Fluoro-2-methyl-phenyl)-[1,2,4]oxadiazol-5-yl]-pyrrolidin-1-yl}-(3-methyl-2-[1,2,3]triazol-2-yl-phenyl)-methanone], the figures for the IC50 in assay [1] (setting [3]) and in assay [2] were 0.626 µM and 0.09 µM, respectively.

Consider `Cc1ccc(-c2ncco2)c(C(=O)N2CCC[C@H]2c2nc(-c3ccccc3OC(F)(F)F)no2)c1` [compound 175, (5-Methyl-2-oxazol-2-yl-phenyl)-{(S)-2-[3-(2-trifluoromethoxy-phenyl)-[1,2,4]oxadiazol-5-yl]-pyrrolidin-1-yl}-methanone], for which the IC50 in assay [1] (setting [3]) amounted to 0.014 µM; in assay [2] it was 0.012 µM.

As to `Cc1ccc(-n2nccn2)c(C(=O)N2CCC[C@H]2c2cc(-c3cccnc3OC(C)C)no2)c1` [compound 427, {(S)-2-[3-(2-Isopropoxy-pyridin-3-yl)-isoxazol-5-yl]-pyrrolidin-1-yl}-(5-methyl-2-[1,2,3]triazol-2-yl-phenyl)-methanone], the figures for the half-inhibitory concentration (IC50) in assay [1] (setting [3]) and in assay [2] were 0.08 µM and 0.292 µM, respectively.

Turning to “{(S)-2-[5-(3-Chloro-2-methyl-phenyl)-[1,3,4]oxadiazol-2-yl]-pyrrolidin-1-yl}-[3-(2-chloro-phenyl)-5-methyl-isoxazol-4-yl]-methanone [Reference compound 9, reference compound]”, the half-inhibitory concentration (IC50) in assay [1] worked out at 0.853 µM; in assay [2] it was 0.242 µM.

As for `Cc1ccc(-n2nccn2)c(C(=O)N2CCC[C@H]2c2nc(-c3cccc4ccn(C)c34)no2)c1` [compound 77, {(S)-2-[3-(1-Methyl-1H-indol-7-yl)-[1,2,4]oxadiazol-5-yl]-pyrrolidin-1-yl}-(5-methyl-2-[1,2,3]triazol-2-yl-phenyl)-methanone], the 50% inhibitory concentration (IC50) in assay [1] (setting [3]) came to 0.052 µM; in assay [2], 0.008 µM.

For `Cc1ccc(-n2nccn2)c(C(=O)N2CCC[C@H]2c2cnc(-c3ccccc3)[nH]2)c1` [compound 519, (5-Methyl-2-[1,2,3]triazol-2-yl-phenyl)-[(S)-2-(2-phenyl-3H-imidazol-4-yl)-pyrrolidin-1-yl]-methanone], the IC50 in assay [1] (setting [3]) worked out at 1.39 µM; in assay [2], 0.72 µM.

For `CCOc1ncccc1-c1noc([C@@H]2CCCN2C(=O)c2cc(C)c(C)cc2-n2nccn2)n1` [compound 212, (4,5-Dimethyl-2-[1,2,3]triazol-2-yl-phenyl)-{(S)-2-[3-(2-ethoxy-pyridin-3-yl)-[1,2,4]oxadiazol-5-yl]-pyrrolidin-1-yl}-methanone], the IC50 in assay [1] (setting [3]) stood at 0.006 µM; in assay [2], 0.003 µM.

For `COc1ccc(-n2nccn2)c(C(=O)N2CCC[C@H]2c2nc(-c3cccc(F)c3C)no2)c1` [compound 249, {(S)-2-[3-(3-Fluoro-2-methyl-phenyl)-[1,2,4]oxadiazol-5-yl]-pyrrolidin-1-yl}-(5-methoxy-2-[1,2,3]triazol-2-yl-phenyl)-methanone], the IC50 in assay [1] (setting [3]) was determined as 0.151 µM; in assay [2], 0.008 µM.

`COc1ccccc1-c1noc([C@@H]2CCCN2C(=O)c2ccccc2-n2nccn2)n1` [compound 227, {(S)-2-[3-(2-Methoxy-phenyl)-[1,2,4]oxadiazol-5-yl]-pyrrolidin-1-yl}-(2-[1,2,3]triazol-2-yl-phenyl)-methanone]: the IC50 in assay [1] (setting [3]) turned out to be 0.852 µM; in assay [2], 0.425 µM.

`Cc1nc(C(=O)N2CCC[C@H]2c2nnc(-c3ccccc3OC(F)(F)F)[nH]2)c(-c2ccccc2)s1` [compound 506, (2-Methyl-5-phenyl-thiazol-4-yl)-{(S)-2-[5-(2-trifluoromethoxy-phenyl)-4H-[1,2,4]triazol-3-yl]-pyrrolidin-1-yl}-methanone]: the values for the IC50 in assay [1] (setting [3]) and in assay [2] were 0.171 µM and 0.116 µM, respectively.

For the compound `Cc1ccc(-n2nccn2)c(C(=O)N2CCC[C@H]2c2cc(-c3ccccc3OC(F)(F)F)no2)c1` [compound 425, (5-Methyl-2-[1,2,3]triazol-2-yl-phenyl)-{(S)-2-[3-(2-trifluoromethoxy-phenyl)-isoxazol-5-yl]-pyrrolidin-1-yl}-methanone], the IC50 is 0.004 µM in assay [1] (setting [3]) and 0.01 µM in assay [2].

With `COc1cc(C)cc(-c2nc([C@@H]3CCCN3C(=O)c3cc(C)ccc3-n3nccn3)no2)c1` [compound 409, {(S)-2-[5-(3-Methoxy-5-methyl-phenyl)-[1,2,4]oxadiazol-3-yl]-pyrrolidin-1-yl}-(5-methyl-2-[1,2,3]triazol-2-yl-phenyl)-methanone], the figures for the IC50 in assay [1] (setting [3]) and in assay [2] were 0.045 µM and 0.012 µM, respectively.

As to `Cc1ccc(-n2nccn2)c(C(=O)N2CCC[C@H]2c2ncc(-c3ccccc3)o2)c1` [Example 461, (5-Methyl-2-[1,2,3]triazol-2-yl-phenyl)-[(S)-2-(5-phenyl-oxazol-2-yl)-pyrrolidin-1-yl]-methanone], the IC50 stood at 0.115 µM in assay [1] (setting [3]) and 0.465 µM in assay [2].

For the compound `COc1ccc(-c2ccccc2)c(C(=O)N2CCC[C@H]2c2nc(-c3ccccc3OC(F)(F)F)no2)c1` [compound 152, (4-Methoxy-biphenyl-2-yl)-{(S)-2-[3-(2-trifluoromethoxy-phenyl)-[1,2,4]oxadiazol-5-yl]-pyrrolidin-1-yl}-methanone], the IC50 amounted to 0.009 µM in assay [1] (setting [3]) and 0.035 µM in assay [2].

Turning to `COc1cc(C(=O)N2CCC[C@H]2c2nc(-c3cccc(Cl)c3C)no2)c(-n2cccn2)cc1C` [compound 105], the results for the IC50 in assay [1] and in assay [2] were 0.133 µM and 0.008 µM, respectively.

For the compound `Cc1cccc(-c2ocnc2C(=O)N2CCC[C@H]2c2nnc(-c3ccccc3OC(F)(F)F)[nH]2)c1` [compound 486, (5-m-Tolyl-oxazol-4-yl)-{(S)-2-[5-(2-trifluoromethoxy-phenyl)-4H-[1,2,4]triazol-3-yl]-pyrrolidin-1-yl}-methanone], the results for the IC50 in assay [1] (setting [3]) and in assay [2] were 2.36 µM and 3.13 µM, respectively.

On to `Cc1onc(-c2ccccc2Cl)c1C(=O)N1CCC[C@H]1c1nnc(-c2cccc(Cl)c2C)o1` [Ref 9], for which the values for the IC50 in assay [1] (setting [3]) and in assay [2] were 11.1 µM and above 21.8 µM, respectively.

`Cc1ccc(-n2nccn2)c(C(=O)N2CCC[C@H]2c2nc(-c3ccc4c(c3)OCO4)no2)c1` [compound 22, [(S)-2-(3-Benzo[1,3]dioxol-5-yl-[1,2,4]oxadiazol-5-yl)-pyrrolidin-1-yl]-(5-methyl-2-[1,2,3]triazol-2-yl-phenyl)-methanone]: the IC50 in assay [1] (setting [3]) stood at 0.942 µM; in assay [2], 0.322 µM.

Consider `CCOc1c(F)cccc1-c1noc([C@@H]2CCCN2C(=O)c2ccccc2-n2nccn2)n1` [compound 288, {(S)-2-[3-(2-Ethoxy-3-fluoro-phenyl)-[1,2,4]oxadiazol-5-yl]-pyrrolidin-1-yl}-(2-[1,2,3]triazol-2-yl-phenyl)-methanone], for which the IC50 was 0.666 µM in assay [1] (setting [3]) and 0.052 µM in assay [2].

Regarding `Cc1cccc(-n2nccn2)c1C(=O)N1CCC[C@H]1c1nc(-c2cccc(Cl)c2C)no1` [compound 98], the IC50 was determined as 0.462 µM in assay [1] (setting [3]) and 0.127 µM in assay [2].
